Results from patent US20200339544A1 (JOINT STOCK COMPANY "BIOCAD", priority 2017, published 2020).
pIC50: −log10 of the molar value. Read-outs that look alike come from different tables or passages of the source. Marks after values point to notes of the source that are not given here.

Tests used:
[1] = Chemical stability in simulated gastric fluid (SGF); assay type: physicochemical; conditions: SGF without enzymes, pH 1,4; 10 μm; 2 hours at 37° C.; substance amount remaining
Procedure: (§1) 1) Determination of chemical stability in simulated intestinal fluid, simulated gastric fluid and human blood plasma.
(§2) SGF concentrate without enzymes, pH=1,4 (Sigma Ireland, cat #01651) was used as simulated gastric fluid. Initial candidate solution (10 mM in DMSO) was diluted with a SGF working solution to a concentration of 10 μm (test solution). The test solution was incubated in a dry block thermostat for 2 hours at 37° C. SIF concentrate without enzymes, pH=6.5 (Sigma Ireland, cat #55331) was used as simulated intestinal fluid. Initial candidate solution (10 mM in DMSO) was diluted with a SIF working solution to a concentration of 10 μm (test solution). The test solution was incubated in a dry block thermostat for 2 hours at 37° C. HPLC with Agilent 1200 liquid chromatography system (Agilent, USA) was employed to determine peak areas of the compounds in test samples, said peak areas corresponding to the initial test time (prior to incubation) and the final test time (after incubation in a dry block thermostat for 2 hours at 37° C.). We used gradient elution (1 mL/min flow rate). Substance amount in % in a sample after thermostatting was determined.
(§3) The stability of the compounds was estimated.

[2] = Chemical stability in simulated intestinal fluid (SIF); assay type: physicochemical; conditions: SIF without enzymes, pH 6.5; 10 μm; 2 hours at 37° C.; substance amount remaining
Procedure: as §1, §2, §3

WT EGFR (Wild-Type EGFR) = biological target: T1, WT EGFR (Wild-Type EGFR) (Homo sapiens, UniProt P00533); experiment: Inhibition of WT EGFR kinase activity (ADP-Glo); assay type: biochemical
T1 construct: purchased SignalChem
T1 sequence (P00533 25-1210): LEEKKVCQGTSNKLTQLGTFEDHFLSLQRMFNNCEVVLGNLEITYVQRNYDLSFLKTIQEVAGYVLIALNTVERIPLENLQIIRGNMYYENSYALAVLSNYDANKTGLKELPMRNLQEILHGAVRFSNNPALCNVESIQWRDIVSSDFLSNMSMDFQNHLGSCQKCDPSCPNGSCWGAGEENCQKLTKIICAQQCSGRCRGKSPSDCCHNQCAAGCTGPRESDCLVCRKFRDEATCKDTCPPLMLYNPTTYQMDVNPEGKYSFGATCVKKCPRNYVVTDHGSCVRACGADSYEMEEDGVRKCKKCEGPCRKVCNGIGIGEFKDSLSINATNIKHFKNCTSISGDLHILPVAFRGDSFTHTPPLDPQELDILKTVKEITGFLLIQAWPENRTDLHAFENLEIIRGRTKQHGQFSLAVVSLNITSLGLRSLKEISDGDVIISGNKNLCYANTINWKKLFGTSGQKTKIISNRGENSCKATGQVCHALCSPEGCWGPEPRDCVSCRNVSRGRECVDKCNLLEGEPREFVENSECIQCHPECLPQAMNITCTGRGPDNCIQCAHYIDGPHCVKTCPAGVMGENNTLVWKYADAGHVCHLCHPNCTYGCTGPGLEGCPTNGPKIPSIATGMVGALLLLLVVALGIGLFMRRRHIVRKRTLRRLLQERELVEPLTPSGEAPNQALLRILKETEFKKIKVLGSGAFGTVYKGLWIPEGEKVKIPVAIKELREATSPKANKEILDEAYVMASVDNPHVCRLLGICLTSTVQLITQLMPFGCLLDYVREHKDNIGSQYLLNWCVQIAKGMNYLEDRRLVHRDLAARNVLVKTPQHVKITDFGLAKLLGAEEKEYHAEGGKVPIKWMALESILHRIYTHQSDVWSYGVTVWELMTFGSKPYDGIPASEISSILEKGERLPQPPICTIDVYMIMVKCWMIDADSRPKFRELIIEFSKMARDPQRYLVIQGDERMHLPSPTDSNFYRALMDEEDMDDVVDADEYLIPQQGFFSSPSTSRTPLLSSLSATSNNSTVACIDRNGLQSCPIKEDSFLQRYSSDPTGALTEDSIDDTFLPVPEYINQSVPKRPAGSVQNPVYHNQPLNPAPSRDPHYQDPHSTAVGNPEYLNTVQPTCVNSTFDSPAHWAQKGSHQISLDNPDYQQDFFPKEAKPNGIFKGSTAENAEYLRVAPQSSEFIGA
Summary of the method: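 Recombinant WT or double-mutant EGFR was incubated with a solution of 0.5 mg/mL peptide substrate and 50 μM ATP for 180 minutes at 37° C. Kinase activity was detected by ADP-Glo luminescence. IC50 values came from a four-parameter logistic fit.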

[3] = system: A549 (lung adenocarcinoma, WT); experiment: Antiproliferative activity on A549 cells (Alamar Blue); assay type: cell-based; conditions: Homo sapiens, antiproliferative test
Summary of the method: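 Cells seeded at 5*10^3/well in RPMI-1640 with 2% FBS, attached 16-18 h at 37° C, then exposed to compounds (≤1% DMSO) for 72 h. Alamar Blue added for 3-5 h; fluorescence read at 540/590 nm. IC50 from four-parameter logistic fit.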

[4] = system: HCC827 (lung adenocarcinoma, SM, exon19delE746-A750); experiment: Antiproliferative activity on HCC827 cells (Alamar Blue); assay type: cell-based; conditions: Homo sapiens, antiproliferative test
Summary of the method: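 HCC827 cells (EGFR exon19del E746-A750), 10×10^3/well, attached 16–18 h, then exposed to compounds for 72 h at 37 °C in RPMI-1640 with 2% FBS, ≤1% DMSO. Viability by Alamar Blue fluorescence (ex 540/em 590 nm) after 3–5 h; IC50 by four-parameter logistic fit.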

[5] = system: H1975 (lung adenocarcinoma, DM, L828R/T790M); experiment: Antiproliferative activity on H1975 cells (Alamar Blue); assay type: cell-based; conditions: for pIC50: Homo sapiens, NCI-H1975, H1975 cells; for SI IC50(A549)/IC50(DM): selectivity index, A549 vs H1975 cells
Summary of the method: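 H1975 cells (15*10^3/well) attached 16-18 h in RPMI-1640 with 2% FBS, then exposed to compounds (≤1% DMSO final) for 72 h at 37 °C. Viability by Alamar Blue fluorescence (Ex 540/Em 590 nm) after 3-5 h; IC50 from four-parameter logistic fit.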

[6] = average values obtained in several tests, Table 16, read-out: H1975 (DM) IC50
[7] = antiproliferative test, Table 15, read-out: IC50 H1975 (DM)

Compound	Stability in SGF, % [1] [%]	Stability in SIF, % [2] [%]	pIC50 (WT EGFR (Wild-Type EGFR))	pIC50 [3]	pIC50 [4]	pIC50 [5, 6]	pIC50 [5, 7]	SI IC50(A549)/IC50(DM) [5]
C=CC(=O)Nc1cc(Nc2cc(C(=O)c3ccc(N4CC(OC)C4)cc3)ccn2)c(OC)cc1N(C)CCN(C)C (racemic) [EGFR_3365_53, N-(2-((2-(dimethylamino)ethyl)(methyl)amino)-4-methoxy-5-((4-(4-(3-methoxyazetidin-1-yl)benzoyl)pyridin-2-yl)amino)phenyl)acrylamide]	100.0	98.8	6.74	5.08	7.58	7.35	7.35	183
C=CC(=O)Nc1cc(Nc2nccc(C(=O)c3ccccc3C(F)(F)F)n2)c(OC)cc1N(C)CCN(C)C [EGFR_3365, N-(2-((2-(dimethylamino)ethyl) (methyl)amino)-4-methoxy-5-((4-(2-(trifluoromethyl)benzoyl)pyrimidin-2-yl)amino)phenyl)acrylamide]	100.0	100.0	6.23	< 5.00	7.84	7.22	7.22	>166**
C=CC(=O)Nc1cc(Nc2cc(C(=O)c3ccccc3)ccn2)c(OC)cc1N(C)CCN(C)C [EGFR_3365_3, N-(5-((4-benzoylpyridin-2-yl)amino)-2-((2-(dimethylamino)ethyl)(methyl)amino)-4-methoxyphenyl)acrylamide]	100.0	100.0	7.12	5.22	8.64	7.35	7.35	136.32
C=CC(=O)Nc1cc(Nc2cc(C(=O)c3ccc(N(C)C)cc3)ccn2)c(OC)cc1N(C)CCN(C)C.O=C(O)C(F)(F)F [EGFR_3365_4, N-(5-((4-(4-(dimethylamino)benzoyl)pyridin-2-yl)amino)-2-((2-(dimethylamino)ethyl) (methyl)amino)-4-methoxyphenyl)acrylamide 2,2,2-trifluoroacetate]	100.0	100.0	6.64	5.27	7.82	7.45	7.45	152.17
C=CC(=O)Nc1cc(Nc2nccc(C(=O)c3ccc(F)cc3)n2)c(OC)cc1N(C)CCN(C)C [EGFR_3365_10, N-(2-((2-(dimethylamino)ethyl)(methyl)amino)-5-((4-(4-fluorobenzoyl)pyrimidin-2-yl)amino)-4-methoxyphenyl) acrylamide]	100.0	100.0	6.67	4.88	8.23	6.68	6.68	62.70
C=CC(=O)Nc1cc(Nc2nccc(C(=O)c3ccccc3Br)n2)c(OC)cc1N(C)CCN(C)C [EGFR_3365_12, N-(5-((4-(2-bromobenzoyl)pyrimidin-2-yl)amino)-2-((2-(dimethylamino)ethyl) (methyl)amino)-4-methoxyphenyl)acrylamide]	100.0	100.0	6.41	4.81	7.69	7.67	7.67	716.20
C=CC(=O)Nc1cc(Nc2nccc(C(=O)c3ccc(OCc4ccccc4)cc3)n2)c(OC)cc1N(C)CCN(C)C [EGFR_3365_16, N-(5-((4-(4-(benzyloxy)benzoyl)pyrimidin-2-yl)amino)-2-((2-(dimethylamino)ethyl)(methyl)amino)-4-methoxyphenyl)acrylamide]	100.0	100.0	6.81	5.66	8.00	7.27	7.27	41.10
C=CC(=O)Nc1cc(Nc2nccc(C(=O)c3ccc(Oc4ccccc4)cc3)n2)c(OC)cc1N(C)CCN(C)C [EGFR_3365_17, N-(2-((2-(dimethylamino)ethyl)(methyl)amino)-4-methoxy-5-((4-(4-phenoxybenzoyl)pyrimidin-2-yl)amino)phenyl)acrylamide]	100.0	98.8	6.77	5.62	7.38	6.41	6.41	6.08
C=CC(=O)Nc1cc(Nc2nccc(C(=O)c3ccc(OC)cc3)n2)c(OC)cc1N(C)CCN(C)C [EGFR_3365_28, N-(2-((2-(dimethylamino)ethyl)(methyl)amino)-4-methoxy-5-((4-(4-methoxybenzoyl)pyrimidin-2-yl)amino)phenyl)acrylamide]	100.0	100.0	6.89	5.44	7.82	7.77	7.77	213.04
C=CC(=O)Nc1cc(Nc2nccc(C(=O)c3ccc(OCC)cc3)n2)c(OC)cc1N(C)CCN(C)C [EGFR_3365_29, N-(2-((2-(dimethylamino)ethyl)(methyl)amino)-5-((4-(4-ethoxybenzoyl)pyrimidin-2-yl)amino)-4-methoxyphenyl) acrylamide]	98.1	100.0	6.70	4.80	8.21	7.57	7.57	595.06
C=CC(=O)Nc1cc(Nc2nccc(C(=O)c3ccc(N4CCCCC4)cc3)n2)c(OC)cc1N(C)CCN(C)C [EGFR_3365_90, N-(2-((2-(dimethylamino)ethyl)(methyl)amino)-4-methoxy-5-((4-(4-(piperidin-1-yl)benzoyl)pyrimidin-2-yl)amino)phenyl)acrylamide]	–	–	7.49	5.28	8.36	8.30	8.12	1060
C=CC(=O)Nc1cc(Nc2nccc(C(=O)c3cc4ccccc4n3C)n2)c(OC)cc1N(C)CCN(C)C [EGFR_3365_94, N-(2-((2-(dimethylamino)ethyl) (methyl)amino)-4-methoxy-5-((4-(1-methyl-1H-indole-2-carbonyl)pyrimidin-2-yl)amino)phenyl)acrylamide]	–	–	7.59	5.16	–	8.18	8.18	1037
C=CC(=O)Nc1cc(Nc2nccc(C(=O)c3ccc(OC)cc3OCCC)n2)c(OC)cc1N(C)CCN(C)C [EGFR_3365_102, N-(2-((2-(dimethylamino)ethyl)(methyl)amino)-4-methoxy-5-((4-(4-methoxy-2-propoxybenzoyl)pyrimidin-2-yl)amino)phenyl)acrylamide]	–	–	6.69	5.25	–	7.09	7.09	69
C=CC(=O)Nc1cc(Nc2nccc(C(=O)c3ccc(N4CCC(N)CC4)cc3)n2)c(OC)cc1N(C)CCN(C)C [EGFR_3365_121, N-(5-((4-(4-(4-aminopiperidin-1-yl)benzoyl)pyrimidin-2-yl)amino)-2-((2-(dimethylamino)ethyl)(methyl)amino)-4-methoxyphenyl)acrylamide]	–	–	7.67	5.08	7.82	8.38	8.38	1983
